Test results: PMC3492849 (The Febs Journal, 2012)

The molecules below were run against PKD1L3/PKD2L1 (Mus musculus, UniProt A2A259+Q2EG98) (assay: Fura-2 Ca2+ imaging, neutralization method).
Assay type: cell-based

Sequence of PKD1L3/PKD2L1 (A2A259 whole entry): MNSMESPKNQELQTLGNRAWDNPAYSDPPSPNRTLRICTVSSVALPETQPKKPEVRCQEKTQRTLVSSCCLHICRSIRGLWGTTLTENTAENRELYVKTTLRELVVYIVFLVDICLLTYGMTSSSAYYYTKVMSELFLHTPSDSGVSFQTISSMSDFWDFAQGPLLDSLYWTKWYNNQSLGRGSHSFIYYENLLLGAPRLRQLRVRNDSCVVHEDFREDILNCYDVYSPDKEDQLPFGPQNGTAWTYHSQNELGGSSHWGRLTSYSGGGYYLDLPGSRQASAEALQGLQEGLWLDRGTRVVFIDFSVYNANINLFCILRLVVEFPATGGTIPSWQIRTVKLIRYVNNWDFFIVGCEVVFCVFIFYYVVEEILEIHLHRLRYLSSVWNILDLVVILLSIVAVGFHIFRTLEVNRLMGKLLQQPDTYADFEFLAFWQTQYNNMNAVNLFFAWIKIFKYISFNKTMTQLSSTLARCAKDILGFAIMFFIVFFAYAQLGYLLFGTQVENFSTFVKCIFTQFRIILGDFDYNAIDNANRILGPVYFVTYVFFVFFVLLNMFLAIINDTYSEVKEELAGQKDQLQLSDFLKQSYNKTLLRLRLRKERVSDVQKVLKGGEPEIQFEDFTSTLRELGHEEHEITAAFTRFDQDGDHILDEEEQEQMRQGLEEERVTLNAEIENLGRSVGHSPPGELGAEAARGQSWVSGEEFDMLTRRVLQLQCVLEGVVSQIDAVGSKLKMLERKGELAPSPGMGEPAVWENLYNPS
Sequence of PKD1L3/PKD2L1 (Q2EG98 21-2151): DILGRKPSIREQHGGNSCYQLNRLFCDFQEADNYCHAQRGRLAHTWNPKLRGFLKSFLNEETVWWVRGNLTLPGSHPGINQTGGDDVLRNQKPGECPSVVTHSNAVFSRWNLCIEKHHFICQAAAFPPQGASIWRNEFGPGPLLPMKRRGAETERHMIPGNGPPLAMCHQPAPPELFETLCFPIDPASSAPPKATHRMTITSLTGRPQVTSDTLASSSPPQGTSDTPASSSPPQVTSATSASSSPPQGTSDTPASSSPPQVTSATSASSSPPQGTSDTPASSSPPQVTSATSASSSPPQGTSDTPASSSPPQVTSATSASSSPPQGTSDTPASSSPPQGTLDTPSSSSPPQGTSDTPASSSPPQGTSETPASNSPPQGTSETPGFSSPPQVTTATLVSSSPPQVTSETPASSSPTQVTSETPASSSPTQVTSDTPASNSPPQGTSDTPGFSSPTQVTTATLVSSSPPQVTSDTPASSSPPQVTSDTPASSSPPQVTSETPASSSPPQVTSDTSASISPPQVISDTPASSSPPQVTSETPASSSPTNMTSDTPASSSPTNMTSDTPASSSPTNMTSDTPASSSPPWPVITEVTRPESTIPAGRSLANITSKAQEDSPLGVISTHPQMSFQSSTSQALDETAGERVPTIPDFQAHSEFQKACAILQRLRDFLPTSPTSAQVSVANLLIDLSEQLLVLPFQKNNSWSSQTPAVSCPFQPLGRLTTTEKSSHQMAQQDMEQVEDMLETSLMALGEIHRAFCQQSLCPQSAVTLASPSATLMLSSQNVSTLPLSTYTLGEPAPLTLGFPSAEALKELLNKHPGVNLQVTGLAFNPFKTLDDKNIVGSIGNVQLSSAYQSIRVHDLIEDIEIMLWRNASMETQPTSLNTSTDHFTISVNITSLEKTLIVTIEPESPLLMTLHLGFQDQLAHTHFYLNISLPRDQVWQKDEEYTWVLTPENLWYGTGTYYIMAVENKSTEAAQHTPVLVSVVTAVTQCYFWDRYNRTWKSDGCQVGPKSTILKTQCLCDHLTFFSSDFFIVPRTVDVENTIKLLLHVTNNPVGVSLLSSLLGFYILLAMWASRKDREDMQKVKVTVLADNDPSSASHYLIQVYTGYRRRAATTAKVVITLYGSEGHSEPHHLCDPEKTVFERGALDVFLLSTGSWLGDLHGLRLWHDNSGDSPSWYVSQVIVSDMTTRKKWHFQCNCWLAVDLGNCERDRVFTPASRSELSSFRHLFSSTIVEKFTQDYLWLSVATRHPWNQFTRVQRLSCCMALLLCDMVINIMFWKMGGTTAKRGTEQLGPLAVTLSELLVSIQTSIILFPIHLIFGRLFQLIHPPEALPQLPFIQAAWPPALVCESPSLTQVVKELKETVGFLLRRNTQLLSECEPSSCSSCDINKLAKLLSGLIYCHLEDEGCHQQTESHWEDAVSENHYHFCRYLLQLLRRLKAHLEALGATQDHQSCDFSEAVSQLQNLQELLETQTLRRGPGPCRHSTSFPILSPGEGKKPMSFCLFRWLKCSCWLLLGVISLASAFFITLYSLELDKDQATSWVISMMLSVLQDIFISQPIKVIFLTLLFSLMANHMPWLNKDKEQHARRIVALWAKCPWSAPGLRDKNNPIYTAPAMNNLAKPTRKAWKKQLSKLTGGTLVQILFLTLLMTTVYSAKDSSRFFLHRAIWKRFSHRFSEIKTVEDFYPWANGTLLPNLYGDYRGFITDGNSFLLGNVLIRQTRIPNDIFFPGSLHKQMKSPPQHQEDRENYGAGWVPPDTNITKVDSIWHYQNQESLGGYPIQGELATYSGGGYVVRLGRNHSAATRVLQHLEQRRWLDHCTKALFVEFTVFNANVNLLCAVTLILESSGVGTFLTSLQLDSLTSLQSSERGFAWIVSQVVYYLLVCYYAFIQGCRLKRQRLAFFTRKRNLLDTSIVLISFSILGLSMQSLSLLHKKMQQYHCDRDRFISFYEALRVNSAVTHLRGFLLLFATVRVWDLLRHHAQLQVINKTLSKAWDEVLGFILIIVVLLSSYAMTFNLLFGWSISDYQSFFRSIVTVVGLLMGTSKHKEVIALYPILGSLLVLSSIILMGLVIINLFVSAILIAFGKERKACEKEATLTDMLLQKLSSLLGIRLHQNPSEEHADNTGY

Structure (SMILES) | IC50 [µM]
CCCCC[C@H](O)CC(=O)CCc1ccc(O)c(OC)c1 [6-gingerol] | 85.9 ± 34.7
COc1ccc(CCCOC(Cn2ccnc2)c2ccc(OC)cc2)cc1 (stereo not shown) [SKF96365] | 48.1 ± 10.8
COc1cc(CNC(=O)CCCC/C=C/C(C)C)ccc1O [capsaicin] | 32.5 ± 10.2
COc1cc(CNC(=O)CCCCCCC(C)C)ccc1O [dihydrocapsaicin] | 55 ± 14.2
